In patent US20220031680A1, “Donecopride As Neuroprotective Agent In the Treatment of Neurodegenerative Diseases” (priority 2018, published 2022):
“And” between values parts separate entries of the source, which are not always exact repeats. Equal entries are not always repeated.

Legend:
α-syn = α-syn aggregation in TH neurons injured with MPP+; type: cell-based, rat; conditions: MPP+ 4 μM 48 h; 1 h pre-incubation
Procedure: The aim of the present study was to investigate the neuroprotective effect of MR36014 and MR33583 (at 4 concentrations) on dopaminergic TH-positive neurons injured with MPP^+. The test compounds were pre-incubated for 1 hour before MPP^+ application (4 μM for 48 h). The neuroprotective effect (survival and neurite network) of test compounds was investigated. In addition, the effect on the cytoplasmic alpha-synuclein accumulation was studied.
Rat dopaminergic neurons were cultured as described by Callizot et al. (2019) PLoS One 14:e0215277 and Visanji et al. (2008) FASEB J. 22:2488-2497. Briefly, pregnant female rat (Wistar) of 15 days of gestation were killed using a deep anesthesia with CO2 chamber and a cervical dislocation. The midbrains obtained from 15-day-old rat embryos (Janvier, France) were dissected under a microscope. […]
Midbrains were dissociated by trypsinisation for 20 min at 37° C. […] Viable cells were counted in a Neubauer cytometer using the trypan blue exclusion test. […]
Briefly, on day 6 of culture, the medium was removed, and fresh medium was added, with or without test compounds and with or without MPP^+ for 48 hours diluted in control medium. 6 wells per condition were assessed. […]
Test compounds were tested in 96-well plate (n=6 culture wells per condition). […] The following conditions were assessed: […]

GFAP = assay: Astrogliosis (GFAP staining) in 5×FAD mouse brain; type: in vivo; conditions: 1 mg/kg twice a week for 3 months; for GFAP staining in frontal cortex or hippocampus: compared to controls; for decrease of GFAP staining in entorhinal brain slices: compared to vehicle
Procedure: 5×FAD mice received chronic treatments with drugs or vehicle according to 2 different protocols. In each experiment, drugs or vehicle solution were administered i.p. twice a week (1 mg/kg). In “Protocol 1”, mice (n=6-7 mice per group) were treated with compounds for two months, from 2 to 4 months of age. In “Protocol 2”, mice (n=7) were treated with compounds for three months, from 1 month to 4 months of age. At the end of each protocol, mice were anesthetized with a mixture of 100 mg/kg ketamine and 10 mg/kg xylazine in saline solution and perfused transcardially with PBS. Brains were quickly isolated on ice, the olfactory bulbs and cerebellum removed and the two hemispheres divided. One hemisphere was frozen on dry ice and stored at −80° C. for biochemical analysis, while the other was post-fixed in 4% PFA for immunohistochemistry (IHC).
Thirty-micrometer-thick sections were cut using a vibratome (Microm HM 650V, Thermo Scientific, Saint Herblain, France) and stored in cryoprotectant medium at −20° C. For the labeling of amyloid plaques, free-floating tissue sections of frontal cortex, hippocampus and entorhinal cortex (coordinates from the bregma: frontal cortex=1.98 mm, hippocampus=−1.94 mm, entorhinal cortex=−3.08 mm) were extensively washed in PBS and then incubated in blocking solution (PBS; 3% BSA; 0.1% Triton X-100) for 1 h. Sections were stained with Hoechst dye (1:1000, Life Technologies, Saint Aubin, France) for 15 minutes to detect cell nuclei and then with freshly prepared thioflavin T solution (#T3516-5G, Sigma-Aldrich) (final concentration: 0.01 mg/ml in blocking buffer) for 15 minutes. After washing in 70% ethanol for 5 minutes, samples were mounted on poly-lysine slides with coverslips. For GFAP (glial fibrillary acidic protein) staining, free-floating brain sections were blocked as before and incubated with polyclonal rabbit anti-GFAP (1:1000, Z0334, Dako, Les Ullis, France) at 4° C. overnight. After thioflavin T staining and washing with 70% ethanol, the secondary Alexafluor 594 goat anti-rabbit antibody (1:1000, A11012, Life Technologies) was added for 2 h. PBS washes and mounting were performed as described before.
Images were acquired with an Axiolmager Z1 microscope (Carl Zeiss S.A.S., Marly le Roi, France). Analysis of thioflavin T staining was performed blindly and data are presented as the mean number of particles per mm^2 in two to three tissue sections from the same brain area/animal (Image J software). GFAP expression was quantified using Image J software and results are expressed as area fractions.
28 female 5×FAD mice (C57BL/6J genetic background) were used in this study. Mice received vehicle or compounds (1 mg/kg) i.p., twice a week for three months, from 1 to 4 months of age.

SMILES	concentrations reducing accumulation/aggregation of α-syn (α-syn)	GFAP staining in frontal cortex or hippocampus (GFAP)	decrease of GFAP staining in entorhinal brain slices (GFAP)
COc1cc(N)c(F)cc1C(=O)CCC1CCN(CC2CCCCCC2)CC1 [MR36014]	all investigated doses		
COc1cc(N)c(F)cc1C(=O)CCC1CCN(CC2CCCC2)CC1 [MR33583]	50 nM and 100 nM		
COc1cc(N)c(F)cc1C(=O)CCC1CCN(CC2CCCCC2)CC1 [Flucopride]		not significantly different	51±5%
COc1cc(N)c(Cl)cc1C(=O)CCC1CCN(CC2CCCCC2)CC1 [Donecopride]		not significantly different	54±10%
